The source of these data is US20200385406A1 (priority 2017, published 2020).

Experiment [1] has as its system HIV-1 NL4-3. The experiment can be described thus: HIV-1 infectivity assay in TZM-bl reporter cells. In kind it is cell-based. The conditions noted are these: for inhibition at 3 µM: Human immunodeficiency virus 1, NL43, TZM-bl, read-out: % Inhibition of HIV-1 Infectivity at 3 μM relative to ΔNef. The method, then: The antiretroviral activity of Nef inhibitor analogs was assessed using the reporter cell line, TZM-bl, which are HeLa cells engineered to express CD4, HIV-1 co-receptors, as well as an HIV-1 LTR-luciferase reporter gene. TZM-bl cells (2.5×10^4) were plated in 96-well plates and allowed to adhere overnight prior to infection. Adherent cells and HIV-1NL4-3 (typically 5,000 pg p24/ml) were then incubated separately with compounds for 3 h and combined in a final volume of 200 μl in each well. Following incubation for 48 h at 37° C., the cells were lysed in 50 μl luciferase cell culture lysis reagent (Promega). Lysates (40 μl) were then transferred to white 96-well plates followed by 50 μl injections of luciferase reagent per well (Promega). Luminescence was then recorded with a delay time of 2 s and an integration period of 10 s. Cytotoxicity of each compound in the absence of HIV-1 was evaluated in TZM-bl cells using the CellTiter-Blue cell viability assay (Promega).

In experiment [2] the target is T1, HIV-1 Nef NL4-3 (Human immunodeficiency virus type 1 group M subtype B, UniProt P03406, A33V/T15A/T51N/V11I).
T1 construct: Full-length recombinant Nef proteins (HIV-1 Nef-SF2, HIV-1 Nef NL4-3 and SIV Nef-mac239) were expressed in E. coli; His-6 (N); made in house; host or cells: E. coli
The experiment can be described thus: SPR binding to recombinant purified Nef protein. The method, then: (§1) Interaction of inhibitor analogs with recombinant purified Nef proteins was performed using an SPR-based binding assay on a Reichert 4-channel SPR instrument. Full-length recombinant Nef proteins (HIV-1 Nef-SF2, HIV-1 Nef NL4-3 and SIV Nef-mac239) were expressed in E. coli and purified via N-terminal His-6 tags, ion-exchange chromatography, and gel filtration. Purity and identity of the Nef proteins was confirmed by SDS-PAGE and mass spectrometry. For SPR, Nef proteins were immobilized on carboxymethyl dextran biosensor chips (Reichert) in HBS-EP running buffer (10 mM HEPES, pH 7.4, 150 mM NaCl, 3 mM EDTA, 0.05% v/v Surfactant P20). Test compounds were injected in triplicate over a range of concentrations (typically 0.1 to 30 μM) at a rate of 10 μL/min for one min until equilibrium was reached, followed by dissociation in HBS-EP for 2 min. Kinetic rate constants were calculated from reference-corrected sensorgrams using the TraceDrawer software package (Reichert), and were best fit via 1:1 Langmuir or 2-step induced-fit binding models. Some initial SPR experiments were performed on a BIAcore T100 instrument (GE Healthcare) using four-channel CM5 biosensor chips, and ligand-protein interactions were best-fit using the BIAevaluations software (version 2.0.4).
(Surface plasmon resonance follows binding to a sensor surface in real time, without labels.)

The target of experiment [3] is T2, HIV-1 Nef-SF2 (Human immunodeficiency virus type 1 group M subtype B, UniProt P03407).
T2 construct: Full-length recombinant Nef proteins (HIV-1 Nef-SF2, HIV-1 Nef NL4-3 and SIV Nef-mac239) were expressed in E. coli; His-6 (N); made in house; host or cells: E. coli
The experiment can be described thus: SPR binding to recombinant purified Nef protein. The method, then:
as §1

In experiment [4] the target is SIV Nef-mac239 (Simian immunodeficiency virus, UniProt Q5QGG3). The experiment can be described thus: SPR binding to recombinant purified Nef protein. The method, then:
as §1

Setting [5] is: HIV-1 Nef-SF2, KD, Biacore T100 instrument.
Where [6] appears, read: HIV-1 Nef-SF2, KD, Reichert 4-Channel instrument, N/I = No Interaction up to 1 μM.
The mark [7] stands for this setting: SPR, Reichert 4-Channel instrument, N/I = No Interaction up to 1 μM.
The mark [8] stands for this setting: Reichert 4-Channel instrument, N/I = No Interaction up to 1 μM.

Like-named read-outs stand apart in the source and are kept apart here.

Consider “2-(2-methyl-5-(morpholine-4-carbonyl)phenyl)isothiazolo[5,4-b]pyridin-3(2H)-one [Compound 15]”, for which, in experiment [1] (3 μM, TZM-bl reporter cells infected with HIV-1 NL4-3), the “% Inhibition of HIV-1 Infectivity at 3 μM relative to ΔNef” value came out at 81%. The Kd in experiment [2] (SPR, Reichert 4-Channel instrument, N/I = No Interaction up to 1 μM, read-out: HIV-1 Nef-NL43, KD) is 140 nM; in experiment [3] (Reichert 4-Channel instrument, N/I = No Interaction up to 1 μM, read-out: HIV-1 Nef-SF2, KD), 390 nM; in experiment [4] (SPR, Reichert 4-Channel instrument, N/I = No Interaction up to 1 μM, read-out: SIV Nef-mac239, KD), 1280 nM.
In the case of `O=C(c1cc(-n2sc3ncccc3c2=O)ccc1F)N1CCOCC1` [Compound 1, 2-(4-fluoro-3-(morpholine-4-carbonyl)phenyl)isothiazolo[5,4-b]pyridin-3(2H)-one], in experiment [1], the inhibition at 3 µM stood at 84%. In experiment [3] (setting [5]), the Kd was 1030 nM.
Regarding `Cc1ccc2c(=O)n(-c3ccc(F)c(C(=O)N4CCOCC4)c3)sc2n1` [Compound 2, 2-(4-fluoro-3-(morpholine-4-carbonyl)phenyl)-6-methylisothiazolo[5,4-b]pyridin-3(2H)-one], the inhibition at 3 µM in experiment [1] was found to be 52%. In experiment [3] (setting [5]), the Kd was determined as 500 nM.
The matching figures for `Cc1ccc2c(=O)n(-c3ccc(Cl)c(C(=O)N4CCOCC4)c3)sc2n1` [Compound 3, 2-(4-chloro-3-(morpholine-4-carbonyl)phenyl)-6-methylisothiazolo[5,4-b]pyridin-3(2H)-one]: 23% and 870 nM.
As to `Cc1ccc2c(=O)n(-c3ccc(C)c(S(=O)(=O)N4CCCC4)c3)sc2n1` [Compound 4, 6-methyl-2-(4-methyl-3-(pyrrolidin-1-ylsulfonyl)phenyl)isothiazolo[5,4-b]pyridin-3(2H)-one], the inhibition at 3 µM in experiment [1] is 32%. Also, the Kd in experiment [3] (setting [5]) turned out to be 260 nM.
Take `O=C(c1cc(-n2sc3ncccc3c2=O)ccc1Cl)N1CCOCC1` [Compound 5, 2-(4-chloro-3-(morpholine-4-carbonyl)phenyl)isothiazolo[5,4-b]pyridin-3(2H)-one]: the inhibition at 3 µM in experiment [1] came to 99%. Also, the Kd in experiment [2] came to 7330 nM; in experiment [3] (setting [5]), 162 nM; in experiment [3] (setting [6]), 2240 nM; in experiment [4], 1510 nM.
Consider `Cc1ccc(-n2sc3ncccc3c2=O)cc1S(=O)(=O)N1CCCC1` [Compound 6, 2-(4-methyl-3-(pyrrolidin-1-ylsulfonyl)phenyl)isothiazolo[5,4-b]pyridin-3(2H)-one], for which, in experiment [1], the inhibition at 3 µM was determined as 28%. Further, the Kd in experiment [2] turned out to be 8660 nM; in experiment [3] (setting [6]), 2400 nM; in experiment [4], 1600 nM.
As to `O=C(Nc1ccc(Cl)cc1)c1cc(-n2sc3ncccc3c2=O)ccc1Cl` [Compound 7, 2-chloro-N-(4-chlorophenyl)-5-(3-oxoisothiazolo[5,4-b]pyridin-2(3H)-yl)benzamide], the inhibition at 3 µM in experiment [1] turned out to be 58%. In addition, the Kd in experiment [2] was 190 nM; in experiment [3] (setting [5]) it was 120 nM; in experiment [4], 280 nM. In addition, the “HIV-1 Nef-NL43, KD” value in experiment [2] (setting [7]) is reported as “N/I”. Moreover, the “HIV-1 Nef-SF2, KD” value in experiment [3] (setting [8]) was “N/I”. In experiment [4] (setting [7]), the “SIV Nef-mac239, KD” value is listed as “N/I”.
For the compound `O=C(c1cc(-n2sc3nc(C(F)(F)F)ccc3c2=O)ccc1Cl)N1CCOCC1` [Compound 8, 2-(4-chloro-3-(morpholine-4-carbonyl)phenyl)-6-(trifluoromethyl)isothiazolo[5,4-b]pyridin-3(2H)-one], the inhibition at 3 µM in experiment [1] came out at 71%. For the same compound, the Kd amounted to 310 nM in experiment [2], 110 nM in experiment [3] (setting [5]), 2340 nM in experiment [3] (setting [6]) and 780 nM in experiment [4]. Also, the “HIV-1 Nef-NL43, KD” value in experiment [2] (setting [7]) is on record as “N/I”. Besides, in experiment [4] (setting [7]), the “SIV Nef-mac239, KD” value is on record as “N/I”.
Consider `O=C(c1ccc(-n2sc3ncccc3c2=O)cc1)N1CCCC1` [Compound 9, 2-(4-(pyrrolidine-1-carbonyl)phenyl)isothiazolo[5,4-b]pyridin-3(2H)-one], for which, in experiment [1], the inhibition at 3 µM was determined as 38%. The Kd in experiment [2] was found to be 40 nM.
In the same order, the values of `O=C(c1cccc(-n2sc3ncccc3c2=O)c1)N1CCOCC1` [Compound 10, 2-(3-(morpholine-4-carbonyl)phenyl)isothiazolo[5,4-b]pyridin-3(2H)-one] are 88% and 250 nM.
Regarding `CC1(C)CN(C(=O)c2cc(-n3sc4ncccc4c3=O)ccc2Cl)CCO1` [Compound 11, 2-(4-chloro-3-(2,2-dimethylmorpholine-4-carbonyl)phenyl)isothiazolo[5,4-b]pyridin-3(2H)-one], the inhibition at 3 µM in experiment [1] is 89%. In addition, the Kd stood at 210 nM in experiment [2], 220 nM in experiment [3] (setting [6]) and 1690 nM in experiment [4].
In the same order, the values of `O=C(c1cc(-n2sc3ncccc3c2=O)ccc1Cl)N1CCCC1` [Compound 12, 2-(4-chloro-3-(pyrrolidine-1-carbonyl)phenyl)isothiazolo[5,4-b]pyridin-3(2H)-one] are 100%, 960 nM, 1710 nM and 3660 nM.
Take `CC1CN(C(=O)c2cc(-n3sc4ncccc4c3=O)ccc2Cl)CC(C)O1` (stereo not drawn) [Compound 13, 2-(4-chloro-3-(2,6-dimethylmorpholine-4-carbonyl)phenyl)isothiazolo[5,4-b]pyridin-3(2H)-one]: in experiment [1], the inhibition at 3 µM was 100%. Moreover, the figures for the Kd in experiment [2], in experiment [3] (setting [6]) and in experiment [4] were 590 nM, 380 nM and 1410 nM, respectively.
The matching figures for `O=C(c1cc(-n2sc3ncccc3c2=O)ccc1Cl)N1CCCCC1` [Compound 14, 2-(4-chloro-3-(piperidine-1-carbonyl)phenyl)isothiazolo[5,4-b]pyridin-3(2H)-one]: 82%, 1760 nM, 1400 nM and 3110 nM.
In the same order, the values of `O=C(c1cc(-n2sc3ncccc3c2=O)ccc1Cl)N1CCC(F)(F)CC1` [Compound 16] are 60%, 56200 nM, 9390 nM and 21100 nM.
In the case of `O=C(c1cc(N2Cc3ncccc3C2=O)ccc1Cl)N1CCOCC1` [Compound 17, 6-(4-chloro-3-(morpholine-4-carbonyl)phenyl)-6,7-dihydro-5H-pyrrolo[3,4-b]pyridin-5-one], in experiment [1], the inhibition at 3 µM was determined as 16%. Moreover, the “HIV-1 Nef-NL43, KD” value in experiment [2] (setting [7]) is “N/I”. For the same compound, in experiment [3] (setting [8]), the “HIV-1 Nef-SF2, KD” value is given as “N/I”. For the same compound, the “SIV Nef-mac239, KD” value in experiment [4] (setting [7]) is listed as “N/I”.

By Kd is commonly meant a measure of binding affinity in units of concentration. A word on the inhibition: it is the share of the control response that was lost under treatment.
